Columns and labels:
COX-2 = molecular target: T1, COX-2 (Mus musculus, UniProt Q05769); assay: Evaluation of COX-2's inhibition efficacy (PGE2 radioimmuno assay, LPS-induced, aspirin-pretreated peritoneal macrophages); format: cell-based, C57BL/6 mouse; settings: for inhibition at 0.1 µg/mL: 0.1 μg/ml; for inhibition at 1 µg/mL: 1 μg/ml; for inhibition at 10 µg/mL: 10 μg/ml
T1 construct: endogenous in cells; host or cells: peritoneal macrophages of C57BL/6 mouse, aspirin-pretreated, LPS-induced
T1 sequence (Q05769 18-604): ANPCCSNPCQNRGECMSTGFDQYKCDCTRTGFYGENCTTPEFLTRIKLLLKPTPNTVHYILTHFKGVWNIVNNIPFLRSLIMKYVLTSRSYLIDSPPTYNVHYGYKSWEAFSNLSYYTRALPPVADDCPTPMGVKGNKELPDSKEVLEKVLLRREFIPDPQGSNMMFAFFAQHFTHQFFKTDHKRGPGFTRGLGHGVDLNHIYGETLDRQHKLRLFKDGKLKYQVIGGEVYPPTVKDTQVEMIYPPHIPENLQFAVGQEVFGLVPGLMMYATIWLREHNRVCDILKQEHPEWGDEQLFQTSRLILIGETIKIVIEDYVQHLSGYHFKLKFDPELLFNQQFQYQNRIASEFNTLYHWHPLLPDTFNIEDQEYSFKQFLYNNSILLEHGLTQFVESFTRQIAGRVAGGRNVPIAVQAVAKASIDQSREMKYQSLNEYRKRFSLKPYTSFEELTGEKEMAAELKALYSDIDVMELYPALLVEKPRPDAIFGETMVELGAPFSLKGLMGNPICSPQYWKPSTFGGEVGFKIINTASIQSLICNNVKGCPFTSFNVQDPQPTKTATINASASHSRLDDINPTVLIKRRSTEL
Experimental: Regarding the compounds in the above Examples and indomethacin, the inhibition efficacy of COX-2 and COX-1 are being measured by the following two methods. […] Evaluation of COX-2's Inhibition Efficacy (J. Pharmacol. Exp. […] After cleaning C57BL/6 mouse's abdomen by 70% EtOH, the skin of mouse's abdomen was eliminated cautiously not to harm peritomeum and 5 ml of cold PBS was poured into the abdominal cavity and in certain times later macrophage-bleeding abdominal-liquid was collected by syringe. […] After putting 1 ml cell suspension having cell number of 1×10^6 cells/mu into each 24-well microtiter plates, macrophages were adhered to the bottom of plate by culturing in the condition of 5% CO2/95% O2, at a temperature of 37° C. for 2 hours. Other cells not being adhered to were eliminated by washing two times with PBS. The purity of macrophages obtained through this process was identified by differential counting. […] After inducing COX-2 by LPS, the cell culture medium was eliminated and macrophages was washed two times with PBS. And 1 ml of RRPI-1640 badge was added to each well again and after treating them with sample with appropriate concentration, they were cultured at a temperature of 37i É for 10 minutes. And then treated them with arachidonic acid to make their final concentration as 10 μM and cultured them additional 10 minutes, all the supernatant liquid of reaction was obtained. The amount of PGE2 produced in the supernatant liquid of reaction was determined by the PGE2 radioimmuno assay.

COX-1 = molecular target: T2, COX-1 (Mus musculus, UniProt P22437); assay: Evaluation of COX-1's inhibition efficacy (macrophages without aspirin and LPS pre-treatment); format: cell-based, C57BL/6 mouse; settings: for inhibition at 10 µg/mL: 10 μg/ml
T2 construct: there is no pre-treatment of aspirin and LPS in the adhesion of macrophage; endogenous in cells; host or cells: peritoneal macrophages of C57BL/6 mouse, without aspirin and LPS pre-treatment
T2 sequence (P22437 27-602): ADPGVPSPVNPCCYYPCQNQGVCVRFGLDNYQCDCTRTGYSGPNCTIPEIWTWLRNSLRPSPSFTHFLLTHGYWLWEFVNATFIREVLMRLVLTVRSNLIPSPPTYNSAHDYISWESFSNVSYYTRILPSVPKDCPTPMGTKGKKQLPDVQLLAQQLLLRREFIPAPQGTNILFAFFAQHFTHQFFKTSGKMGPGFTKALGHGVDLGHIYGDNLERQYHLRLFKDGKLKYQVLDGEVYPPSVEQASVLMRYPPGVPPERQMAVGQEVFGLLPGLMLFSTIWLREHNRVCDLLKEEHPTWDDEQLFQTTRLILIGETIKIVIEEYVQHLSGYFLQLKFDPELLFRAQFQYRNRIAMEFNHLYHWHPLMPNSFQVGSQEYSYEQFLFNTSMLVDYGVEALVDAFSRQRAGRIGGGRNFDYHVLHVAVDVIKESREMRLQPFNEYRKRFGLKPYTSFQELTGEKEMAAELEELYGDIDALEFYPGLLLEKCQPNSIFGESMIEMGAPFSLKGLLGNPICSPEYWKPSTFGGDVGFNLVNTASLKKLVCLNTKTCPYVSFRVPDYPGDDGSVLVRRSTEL
Experimental: Regarding the compounds in the above Examples and indomethacin, the inhibition efficacy of COX-2 and COX-1 are being measured by the following two methods.
After cleaning C57BL/6 mouse's abdomen by 70% EtOH, the skin of mouse's abdomen was eliminated cautiously not to harm peritomeum and 5 ml of cold PBS was poured into the abdominal cavity and in certain times later macrophage-bleeding abdominal-liquid was collected by syringe. By adding RPMI-1640 badge containing penicillin(100 unit/mt) and streptomycin([…]) to cell pellet obtained by centrifugation of collected liquid about 5 minutes in 1500 rpm, it was disperesed and also COX-1 existing in the cell was inactivated by treating with 500 μM aspirin. After putting 1 ml cell suspension having cell number of 1×10^6 cells/mu into each 24-well microtiter plates, macrophages were adhered to the bottom of plate by culturing in the condition of 5% CO2/95% O2, at a temperature of 37° C. for 2 hours. Other cells not being adhered to were eliminated by washing two times with PBS. The purity of macrophages obtained through this process was identified by differential counting. After adding RPMI-1640 badge(normally 5×10^5 cell/ml) containing 3% right fetal blood serum to macrophage and treating it with LPS(lipopolysaccharide) to make final concentration as 10 μg/ml, it was cultured in the condition of 5% CO2, at a temperature of 37° C. for 16 hours. After inducing COX-2 by LPS, the cell culture medium was eliminated and macrophages was washed two times with PBS. And 1 ml of RRPI-1640 badge was added to each well again and after treating them with sample with appropriate concentration, they were cultured at a temperature of 37i É for 10 minutes. And then treated them with arachidonic acid to make their final concentration as 10 μM and cultured them additional 10 minutes, all the supernatant liquid of reaction was obtained. The amount of PGE2 produced in the supernatant liquid of reaction was determined by the PGE2 radioimmuno assay. The 100% COX-2's activation is referenced by the difference of the amount of PGE2 produced in the supernatant liquid of reaction between with 10 μM arachidonic acid treatment and without 10 μM arachidonic acid treatment.
2. Evaluation of COX-1's Inhibition Efficacy
Following the same procedure as the above evaluation of COX-2's inhibition efficacy, but there is no pre-treatment of aspirin and LPS in the adhesion of macrophage.

| inhibition at 0.1 µg/mL (COX-2) | inhibition at 1 µg/mL (COX-2) | inhibition at 10 µg/mL (COX-2) | inhibition at 10 µg/mL (COX-1) | melting point | inhibition at 1 µg/mL (COX-1; 1 μg/ml) | Compound |
| --- | --- | --- | --- | --- | --- | --- |
| 6% | 29% | 69% | < 5% | 196 to 198 °C | – | CS(=O)(=O)c1ccc(-c2oc3ccccc3c(=S)c2-c2cccc(Cl)c2)cc1 [Example 40, 3-(3-Chlorophenyl)-2-(4-(methylsulfonyl)phenyl)-4H-1-benzopyran-4-thione] |
| 32% | 76% | 92% | – | 215 to 217 °C | – | Cc1ccc(-c2c(-c3ccc(S(N)(=O)=O)cc3)oc3ccc(F)cc3c2=O)cc1 [Example 49, 2-(4-(Aminosulfonyl)phenyl)-6-fluoro-3-(4-methylphenyl)-4H-1-benzopyran-4-one] |
| 18% | 77% | 96% | – | 191 to 192 °C | – | CS(=O)(=O)c1ccc(-c2oc3ccccc3c(=S)c2-c2cccc(Cl)c2Cl)cc1 [Example 38, 3-(2,3-Dichlorophenyl)-2-(4-(methylsulfonyl)phenyl)-4H-1-benzopyran-4-thione] |
| – | 18% | 35% | 11% | 197 to 199 °C | – | CS(=O)(=O)c1ccc(-c2oc3ccccc3c(=O)c2-c2cncc(Br)c2)cc1 [Example 19, 3-(5-Bromo-3-pyridinyl)-2-(4-(methylsulfonyl)phenyl)-4H-1-benzopyran-4-one] |
| – | – | < 5% | < 5% | 223 to 224 °C | – | CS(=O)(=O)c1ccc(-c2oc3ccccc3c(=O)c2-c2cccc([N+](=O)[O-])c2)cc1 [Example 4, 2-(4-(methylsulfonyl)phenyl)-3-(3-nitrophenyl)-4H-1-benzopyran-4-one] |
| – | – | – | – | 168 °C | – | CS(=O)(=O)c1ccc(-c2oc3ccccc3c(=S)c2-c2ccc(Cl)c(Cl)c2)cc1 [Example 42, 3-(3,4-Dichlorophenyl)-2-(4-(methylsulfonyl)phenyl)-4H-1-benzopyran-4-thione] |
| – | – | 13% | < 5% | 202 to 203 °C | – | Cn1ccc(-c2c(-c3ccc(S(C)(=O)=O)cc3)oc3ccccc3c2=O)n1 [Example 17, 3-(N-methyl-3-pyrazolyl)-2-(4-(methylsulfonyl)phenyl)-4H-1-benzopyran-4-one] |
| – | – | – | – | 198 to 200 °C | – | CS(=O)(=O)c1ccc(-c2oc3ccccc3c(=S)c2-c2ccccc2F)cc1 [Example 45, 3-(2-Fluorophenyl)-2-(4-(methylsulfonyl)phenyl)-4H-1-benzopyran-4-thione] |
| – | 90% | 100% | 84% | 252 to 254 °C | 66% | COc1ccc(-c2c(-c3ccc(S(N)(=O)=O)cc3)oc3ccccc3c2=O)cc1 [Example 55, 2-(4-(Aminosulfonyl)phenyl)-3-(4-methoxyphenyl)-4H-1-benzopyran-4-one] |
| – | – | – | – | 199 °C | – | COc1ccc(-c2c(-c3ccc(S(C)(=O)=O)cc3)oc3ccccc3c2=S)cc1 [Example 44, 3-(4-Methoxyphenyl)-2-(4-(methylsulfonyl)phenyl)-4H-1-benzopyran-4-thione] |
| 5% | 80% | 87% | – | 215 to 217 °C | – | NS(=O)(=O)c1ccc(-c2oc3ccc(F)cc3c(=O)c2-c2ccc(Cl)cc2)cc1 [Example 50, 2-(4-(Aminosulfonyl)phenyl)-6-fluoro-3-(4-chlorophenyl)-4H-1-benzopyran-4-one] |
| – | – | – | – | 193 to 194 °C | – | CS(=O)(=O)c1ccc(-c2oc3ccccc3c(=O)c2-c2cccc3ccccc23)cc1 [Example 13, 2-(4-(methylsulfonyl)phenyl)-3-(1-naphthyl)-4H-1-benzopyran-4-one] |
| 4% | 67% | 91% | – | 212 °C | – | CS(=O)(=O)c1ccc(-c2oc3ccccc3c(=S)c2-c2cccc(F)c2)cc1 [Example 46, 3-(3-Fluorophenyl)-2-(4-(methylsulfonyl)phenyl)-4H-1-benzopyran-4-thione] |
| – | – | – | – | 165 to 167 °C | – | CS(=O)(=O)c1ccc(-c2oc3ccccc3c(=O)c2-c2cccs2)cc1 [Example 7, 2-(4-(Methylsulfonyl)phenyl)-3-(2-thienyl)-4H-1-benzopyran-4-one] |
| – | – | – | – | 204 to 205 °C | – | Cc1ccc(-c2c(-c3ccc(S(C)(=O)=O)cc3)oc3ccccc3c2=S)cc1 [Example 43, 3-(4-Methylphenyl)-2-(4-(methylsulfonyl)phenyl)-4H-1-benzopyran-4-thione] |
| 39% | 90% | 100% | – | 172 to 175 °C | – | CS(=O)(=O)c1ccc(-c2oc3ccccc3c(=O)c2-c2ccc(Cl)cc2Cl)cc1 [Example 5, 3-(2,4-Dichlorophenyl)-2-(4-(methylsulfonyl)phenyl)-4H-1-benzopyran-4-one] |
| 11% | 31% | 86% | – | 201 to 202 °C | – | Cc1cccc(-c2c(-c3ccc(S(C)(=O)=O)cc3)oc3ccccc3c2=S)c1 [Example 39, 3-(3-Methylphenyl)-2-(4-(methylsulfonyl)phenyl)-4H-1-benzopyran-4-thione] |
| – | – | – | – | 223 to 224 °C | – | CC(=O)c1ccc(-c2c(-c3ccc(S(C)(=O)=O)cc3)oc3ccccc3c2=O)cc1 [Example 8, 3-(4-Acetylphenyl)-2-(4-(methylsulfonyl)phenyl)-4H-1-benzopyran-4-one] |
